From patent US8791108B2, “Inhibitors of human immunodeficiency virus replication” (priority 2011, dated 2014)
pEC50: −log10 of the molar value. Like-named read-outs stand apart in the source and are kept apart here.

Test system: recombinant NL-Rluc virus
Test: Inhibition of HIV replication (NL-RLuc luciferase reporter virus, MT-2 cells)
Type: cell-based
Details: Human immunodeficiency virus 1, MT2, 120 h; for pEC50: read-out: Activity; for EC50: read-out: EC50 μM

Compound | pEC50 | EC50
Cc1nc2cc(C(=O)NCCOc3ccccc3)nn2c(-c2cc(F)c3c(c2C)CCCO3)c1[C@H](OC(C)(C)C)C(=O)O [Example 55, (2S)-2-(tert-butoxy)-2-(7-(8-fluoro-5-methylchroman-6-yl)-5-methyl-2-((2-phenoxyethyl)carbamoyl)pyrazolo[1,5-a]pyrimidin-6-yl)acetic acid] | > 7.00 | –
Cc1nc2cc(C(=O)N[C@H]3C[C@@H]3c3ccccc3)nn2c(-c2cc(F)c3c(c2C)CCCO3)c1[C@H](OC(C)(C)C)C(=O)O [Example 56, (2S)-2-(tert-butoxy)-2-(7-(8-fluoro-5-methylchroman-6-yl)-5-methyl-2-(((1S,2R)-2-phenylcyclopropyl)carbamoyl)pyrazolo[1,5-a]pyrimidin-6-yl)acetic acid] | > 7.00 | –
Cc1nc2cc(C(=O)NCCc3ccc(F)cc3)nn2c(-c2cc(F)c3c(c2C)CCCO3)c1[C@H](OC(C)(C)C)C(=O)O [Example 57, (2S)-2-(tert-butoxy)-2-(7-(8-fluoro-5-methylchroman-6-yl)-2-((4-fluorophenethyl)carbamoyl)-5-methylpyrazolo[1,5-a]pyrimidin-6-yl)acetic acid] | > 7.00 | –
Cc1nc2cc(C(=O)NCC3CCN(C(=O)C4CC4)CC3)nn2c(-c2cc(F)c3c(c2C)CCCO3)c1[C@H](OC(C)(C)C)C(=O)O [Example 58, (2S)-2-(tert-butoxy)-2-(2-(((1-(cyclopropanecarbonyl)piperidin-4-yl)methyl)carbamoyl)-7-(8-fluoro-5-methylchroman-6-yl)-5-methylpyrazolo[1,5-a]pyrimidin-6-yl)acetic acid] | < 6.00 | –
Cc1nc2cc(C(=O)NCC3CCN(C(=O)OC(C)(C)C)CC3)nn2c(-c2cc(F)c3c(c2C)CCCO3)c1[C@H](OC(C)(C)C)C(=O)O [Example 59, (2S)-2-(tert-butoxy)-2-(2-(((1-(tert-butoxycarbonyl)piperidin-4-yl)methyl)carbamoyl)-7-(8-fluoro-5-methylchroman-6-yl)-5-methylpyrazolo[1,5-a]pyrimidin-6-yl)acetic acid] | 6.00 to 7.00 | –
Cc1ccc(CNC(=O)c2cc3nc(C)c([C@H](OC(C)(C)C)C(=O)O)c(-c4cc(F)c5c(c4C)CCCO5)n3n2)cc1F [Example 60, (2S)-2-(tert-butoxy)-2-(2-((3-fluoro-4-methylbenzyl)carbamoyl)-7-(8-fluoro-5-methylchroman-6-yl)-5-methylpyrazolo[1,5-a]pyrimidin-6-yl)acetic acid] | > 7.00 | –
Cc1nc2cc(C(=O)NCc3cccnc3)nn2c(-c2cc(F)c3c(c2C)CCCO3)c1[C@H](OC(C)(C)C)C(=O)O [Example 61, (2S)-2-(tert-butoxy)-2-(7-(8-fluoro-5-methylchroman-6-yl)-5-methyl-2-((pyridin-3-ylmethyl)carbamoyl)pyrazolo[1,5-a]pyrimidin-6-yl)acetic acid] | < 6.00 | –
Cc1nc2cc(C(=O)NCCC(C)(C)C)nn2c(-c2cc(F)c3c(c2C)CCCO3)c1[C@H](OC(C)(C)C)C(=O)O [Example 62, (2S)-2-(tert-butoxy)-2-(2-((3,3-dimethylbutyl)carbamoyl)-7-(8-fluoro-5-methylchroman-6-yl)-5-methylpyrazolo[1,5-a]pyrimidin-6-yl)acetic acid] | > 7.00 | 0.013 µM
Cc1nc2cc(C(=O)NCc3ccc(F)cc3O)nn2c(-c2cc(F)c3c(c2C)CCCO3)c1[C@H](OC(C)(C)C)C(=O)O [Example 63, (2S)-2-(tert-butoxy)-2-(2-((4-fluoro-2-hydroxybenzyl)carbamoyl)-7-(8-fluoro-5-methylchroman-6-yl)-5-methylpyrazolo[1,4-a]pyrimidin-6yl)acetic acid] | > 7.00 | –
Cc1nc2cc(C(=O)NCc3cccc(C(F)(F)F)c3)nn2c(-c2cc(F)c3c(c2C)CCCO3)c1[C@H](OC(C)(C)C)C(=O)O [Example 64] | > 7.00 | –
COc1ccc(CCNC(=O)c2cc3nc(C)c([C@H](OC(C)(C)C)C(=O)O)c(-c4cc(F)c5c(c4C)CCCO5)n3n2)cc1 [Example 65, (2S)-2-(tert-butoxy)-2-(7-(8-fluoro-5-methylchroman-6-yl)-2-((4-methoxyphenethyl)carbamoyl)-5-methylpyrazolo[1,5-a]pyrimidin-6-yl)acetic acid] | > 7.00 | –
Cc1nc2cc(C(=O)NCc3ccc(C(F)(F)F)cc3)nn2c(-c2cc(F)c3c(c2C)CCCO3)c1[C@H](OC(C)(C)C)C(=O)O [Example 66, (2S)-2-(tert-butoxy)-2-(7-(8-fluoro-5-methylchroman-6-yl)-5-methyl-2-((4-(trifluoromethyl)benzyl)carbamoyl)pyrazolo[1,5-a]pyrimidin-6-yl)acetic acid] | > 7.00 | –
Cc1nc2cc(C(=O)NCc3cccc(OC(F)(F)F)c3)nn2c(-c2cc(F)c3c(c2C)CCCO3)c1[C@H](OC(C)(C)C)C(=O)O [Example 67] | > 7.00 | 0.009 µM
Cc1nc2cc(C(=O)NCc3ccc(Oc4ccccc4)cc3)nn2c(-c2cc(F)c3c(c2C)CCCO3)c1[C@H](OC(C)(C)C)C(=O)O [Example 68, (2S)-2-(tert-butoxy)-2-(7-(8-fluoro-5-methylchroman-6-yl)-5-methyl-2-((4-phenoxybenzyl)carbamoyl)pyrazolo[1,5-a]pyrimidin-6-yl)acetic acid] | > 7.00 | –
Cc1nc2cc(C(=O)NCc3cccc(-c4ccccc4)c3)nn2c(-c2cc(F)c3c(c2C)CCCO3)c1[C@H](OC(C)(C)C)C(=O)O [Example 69, (2S)-2-(2-(([1,1′-biphenyl]-3-ylmethyl)carbamoyl)-7-(8-fluoro-5-methylchroman-6-yl)-5-methylpyrazolo[1,5-a]pyrimidin-6-yl)-2-(tert-butoxy)acetic acid] | > 7.00 | –
Cc1nc2cc(C(=O)NCc3ccc(-c4ccccc4)cc3)nn2c(-c2cc(F)c3c(c2C)CCCO3)c1[C@H](OC(C)(C)C)C(=O)O [Example 70, (2S)-2-(2-(([1,1′-biphenyl]-4-ylmethyl)carbamoyl)-7-(8-fluoro-5-methylchroman-6-yl)-5-methylpyrazolo[1,5-a]pyrimidin-6-yl)-2-(tert-butoxy)acetic acid] | > 7.00 | –
COc1cccc(CNC(=O)c2cc3nc(C)c([C@H](OC(C)(C)C)C(=O)O)c(-c4cc(F)c5c(c4C)CCCO5)n3n2)c1 [Example 71] | > 7.00 | –
Cc1nc2cc(C(=O)NCCC3CCN(Cc4ccccc4)CC3)nn2c(-c2cc(F)c3c(c2C)CCCO3)c1[C@H](OC(C)(C)C)C(=O)O [Example 72, (2S)-2-(2-((2-(1-benzylpiperidin-4-yl)ethyl)carbamoyl)-7-(8-fluoro-5-methylchroman-6-yl)-5-methylpyrazolo[1,5-a]pyrimidin-6-yl)-2-(tert-butoxy)acetic acid] | 6.00 to 7.00 | 0.668 µM
Cc1nc2cc(C(=O)Nc3ccc(C4CCCCC4)cc3)nn2c(-c2cc(F)c3c(c2C)CCCO3)c1[C@H](OC(C)(C)C)C(=O)O [Example 73, (2S)-2-(tert-butoxy)-2-(2-((4-cyclohexylphenyl)carbamoyl)-7-(8-fluoro-5-methylchroman-6-yl)-5-methylpyrazolo[1,5-a]pyrimidin-6-yl)acetic acid] | > 7.00 | –
Cc1nc2cc(C(=O)NCCC3CCCN3C)nn2c(-c2cc(F)c3c(c2C)CCCO3)c1[C@H](OC(C)(C)C)C(=O)O (stereo partly drawn) [Example 74, (2S)-2-(tert-butoxy)-2-(7-(8-fluoro-5-methylchroman-6-yl)-5-methyl-2-((2-(1-methylpyrrolidin-2-yl)ethyl)carbamoyl)pyrazolo[1,5-a]pyrimidin-6-yl)acetic acid] | < 6.00 | –
Cc1nc2cc(C(=O)NCCN3CCCC3)nn2c(-c2cc(F)c3c(c2C)CCCO3)c1[C@H](OC(C)(C)C)C(=O)O [Example 75, (2S)-2-(tert-butoxy)-2-(7-(8-fluoro-5-methylchroman-6-yl)-5-methyl-2-((2-(pyrrolidin-1-yl)ethyl)carbamoyl)pyrazolo[1,5-a]pyrimidin-6-yl)acetic acid] | < 6.00 | –
Cc1nc2cc(C(=O)NCCCN3CCCC3=O)nn2c(-c2cc(F)c3c(c2C)CCCO3)c1[C@H](OC(C)(C)C)C(=O)O [Example 76] | < 6.00 | –
Cc1nc2cc(C(=O)NCC3CCCO3)nn2c(-c2cc(F)c3c(c2C)CCCO3)c1[C@H](OC(C)(C)C)C(=O)O (stereo partly drawn) [Example 77, (2S)-2-(tert-butoxy)-2-(7-(8-fluoro-5-methylchroman-6-yl)-5-methyl-2-(((tetrahydrofuran-2-yl)methyl)carbamoyl)pyrazolo[1,5-a]pyrimidin-6-yl)acetic acid] | 6.00 to 7.00 | –
Cc1nc2cc(C(=O)N3CCC(c4ccccc4)CC3)nn2c(-c2cc(F)c3c(c2C)CCCO3)c1[C@H](OC(C)(C)C)C(=O)O [Example 78, (2S)-2-(tert-butoxy)-2-(7-(8-fluoro-5-methylchroman-6-yl)-5-methyl-2-(4-phenylpiperidine-1-carbonyl)pyrazolo[1,5-a]pyrimidin-6-yl)acetic acid] | > 7.00 | –
Cc1nc2cc(C(=O)N3CCc4ccccc4C3)nn2c(-c2cc(F)c3c(c2C)CCCO3)c1[C@H](OC(C)(C)C)C(=O)O [Example 79, (2S)-2-(tert-butoxy)-2-(7-(8-fluoro-5-methylchroman-6-yl)-5-methyl-2-(1,2,3,4-tetrahydroisoquinoline-2-carbonyl)pyrazolo[1,5-a]pyrimidin-6-yl)acetic acid] | > 7.00 | –
Cc1nc2cc(C(=O)N3CCN(c4cccc(Cl)c4)CC3)nn2c(-c2cc(F)c3c(c2C)CCCO3)c1[C@H](OC(C)(C)C)C(=O)O [Example 80, (2S)-2-(tert-butoxy)-2-(2-(4-(3-chlorophenyl)piperazine-1-carbonyl)-7-(8-fluoro-5-methylchroman-6-yl)-5-methylpyrazolo[1,5-a]pyrimidin-6-yl)acetic acid] | > 7.00 | –
Cc1nc2cc(C(=O)NCCc3cccc(Cl)c3)nn2c(-c2cc(F)c3c(c2C)CCCO3)c1[C@H](OC(C)(C)C)C(=O)O [Example 81, (2S)-2-(tert-butoxy)-2-(2-((3-chlorophenethyl)carbamoyl)-7-(8-fluoro-5-methylchroman-6-yl)-5-methylpyrazolo[1,5-a]pyrimidin-6-yl)acetic acid] | > 7.00 | –
Cc1nc2cc(C(=O)NC3CCN(Cc4ccccc4)C3)nn2c(-c2cc(F)c3c(c2C)CCCO3)c1[C@H](OC(C)(C)C)C(=O)O (stereo partly drawn) [Example 82, (2S)-2-(2-((1-benzylpyrrolidin-3-yl)carbamoyl)-7-(8-fluoro-5-methylchroman-6-yl)-5-methylpyrazolo[1,5-a]pyrimidin-6-yl)-2-(tert-butoxy)acetic acid] | 6.00 to 7.00 | –
